Tests used:
MalA′ = assay: Co-crystallization with MalA′; type: binding, Malbranchea graminicola
Method: Crystallization conditions. […] The purified MalA′ was dialyzed overnight into a 20 mM HEPES pH 7 buffer with 200 mM NaCl or 300 mM NaCl to remove glycerol, and then supplemented with an equimolar quantity of FAD. […] For active site complexes with compounds 2, 3, and 4, MalA′ was pre-incubated with a four-fold molar excess of substrate. Crystals were grown by vapor diffusion from 1:2 mixtures of 5 mg/mL MalA′ pre-incubated with compound 2, 3 or 4 and a well solution containing 2 M (NH4)2SO4, 0.2 M Li2SO4, 5 mM CdCl2, and 0.1 M Bis-Tris pH 5.5. Crystals were cryoprotected in well solution augmented with 10% glycerol and flash-cooled in liquid nitrogen.

MalA = target: T1, MalA (Malbranchea aurantiaca, UniProt L0E155); assay: Michaelis-Menten kinetics of MalA chlorination reactions; type: biochemical
T1 construct: The malA coding region was amplified from the cDNA template by PCR; made in house; host or cells: E. coli BL21 (DE3) with pGro7 (GroEL/GroES) chaperone plasmid
T1 sequence (L0E155 whole entry): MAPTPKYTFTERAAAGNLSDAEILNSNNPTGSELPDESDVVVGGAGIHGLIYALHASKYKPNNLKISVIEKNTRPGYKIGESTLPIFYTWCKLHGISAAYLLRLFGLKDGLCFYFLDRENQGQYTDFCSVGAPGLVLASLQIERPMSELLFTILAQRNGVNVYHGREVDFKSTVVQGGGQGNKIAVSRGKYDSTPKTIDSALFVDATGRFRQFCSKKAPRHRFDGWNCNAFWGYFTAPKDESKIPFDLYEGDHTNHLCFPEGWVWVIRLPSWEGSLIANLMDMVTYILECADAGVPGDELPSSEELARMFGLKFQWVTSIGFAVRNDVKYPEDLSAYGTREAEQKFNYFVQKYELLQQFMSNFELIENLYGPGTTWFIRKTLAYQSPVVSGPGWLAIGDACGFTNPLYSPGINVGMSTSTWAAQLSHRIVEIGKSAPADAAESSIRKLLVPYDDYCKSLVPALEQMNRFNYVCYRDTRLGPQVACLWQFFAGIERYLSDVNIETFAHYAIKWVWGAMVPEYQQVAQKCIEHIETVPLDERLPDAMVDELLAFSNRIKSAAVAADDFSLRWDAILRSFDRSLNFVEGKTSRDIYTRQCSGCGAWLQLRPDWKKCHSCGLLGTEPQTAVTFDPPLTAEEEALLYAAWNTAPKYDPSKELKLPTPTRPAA
Method: Substrates malbrancheamide B (compound 3) and isomalbrancheamide B (compound 4) to product malbrancheamide (compound 1). Reactions were set up in a total volume of 250 μL with the following components: 1.1 μM MalA, 44 μM HpaC flavin reductase, 100 μM FAD, 50 mM NaCl, 3.6 mM NADH, and a variety of substrate concentrations ranging from 1 μM to 60 μM. Reactions were quenched with methanol by removing 50 μL at each time point (2, 5, 10, 15 minutes). Reactions were analyzed on a Schimadzu HPLC with the following LC time program: 40% acetonitrile for 1 minute, gradient over 6 minutes from 40-85% acetonitrile, 85% acetonitrile for 1 minute, gradient over 1 minute to 40% acetonitrile, re-equilibration to 40% acetonitrile for 3 minutes. The absorbance was measured at 240 nm and the mobile phase consisted of water and acetonitrile. A Phenomenex Lux cellulose-3, cellulose Tris (4-methylbenzoate) 250×4.6 mm column was used for separation. GraphPad Prism (Version 6.01) software was used to plot the initial velocities against the substrate concentration and to determine the kinetic constants kcat and Km.
Substrate premalbrancheamide (compound 2) to products isomalbrancheamide B (compound 4) and malbrancheamide B (compound 3). Reactions were set up in a total volume of 250 μL with the following components: 1.8 μM MalA, 44 μM HpaC, 100 μM FAD, 50 mM NaCl, 3.6 mM NADH, and a variety of substrate concentrations ranging from 5 μM to 80 μM. Reactions were quenched with 100 μL methanol by removing 50 μL at each time point (2, 5, 7, 10 minutes). Reactions were analyzed on a Schimadzu HPLC with the following LC time program: 34% acetonitrile for 1 minute, gradient over 11 minutes to 62% acetonitrile, 62% acetonitrile for 30 seconds, gradient over 30 seconds to 34% acetonitrile, re-equilibration to 34% for 3 minutes. The absorbance was measured at 240 nm and the mobile phase consisted of water and acetonitrile. A Phenomenex Lux cellulose-3 Tris (4-methylbenzoate) 250×4.6 mm column was used for separation.
Michaelis-Menten kinetic parameters were determined for the natural chlorination reactions of MalA. […] These catalytic efficiencies are fairly high compared to those of the eukaryotic FDH Rdc2, which are 2.93 min−1 mM−1 for the initial chlorination reaction and 0.11 min−1 mM−1 for the second chlorination reaction.^4

[1] = second chlorination, to compound 1
[2] = chlorination, compound 2 to compound 3
[3] = chlorination, compound 2 to compound 4

CC1(C)c2[nH]c3cc(Cl)c(Cl)cc3c2C[C@@]23CN4CCC[C@]4(C[C@@H]12)C(=O)N3 [compound 1, malbrancheamide]
binding in MalA′ crystals (MalA′): did not bind in crystals

CC1(C)c2[nH]c3ccc(Cl)cc3c2C[C@@]23CN4CCC[C@]4(C[C@@H]12)C(=O)N3 [compound 4, isomalbrancheamide B]
Km (MalA; [1]): 4 µM
kcat (MalA; [1]): 0.002 s⁻¹

CC1(C)c2[nH]c3cc(Cl)ccc3c2C[C@@]23CN4CCC[C@]4(C[C@@H]12)C(=O)N3 [compound 3, malbrancheamide B]
Km (MalA; [1]): 4.4 µM
kcat (MalA; [1]): 0.002 s⁻¹

CC1(C)c2[nH]c3ccccc3c2CC23CN4CCCC4(CC21)C(=O)N3 (stereo not drawn) [compound 2, premalbrancheamide]
Km (MalA; [2]): 7 µM
kcat (MalA; [2]): 0.0013 s⁻¹
Km (MalA; [3]): 7.5 µM
kcat (MalA; [3]): 0.0015 s⁻¹

From US12252714B2, “Halogenation of complex organic compounds” (REGENTS OF THE UNIVERSITY OF MICHIGAN, priority 2018, dated 2025)
